The record followed here is US10517806B2, “Antimicrobial foaming compositions containing cationic active ingredients” (ECOLAB USA INC., priority 2014, dated 2019).

Where only a bound is given, the exact number is not on record here.

The subject of one experiment is E. coli (ATCC # 112229). Nature of the experiment: Time kill activity (ASTM E 2315), log reduction. It counts as cell-based, Escherichia coli. The note with it: 30 seconds. How it is done: (§1) In this test, a diluted aliquot of the composition is brought into contact with a known population of test bacteria for a specified time period at a specified temperature. The test composition is neutralized at the end of the time period, which arrests the antimicrobial activity of the composition. The percent or, alternatively, log reduction from the original bacteria population is calculated. In general, the time kill method is known to those skilled in the art. […] The choice of which concentration to use is at the discretion of the investigator, and suitable concentrations are readily determined by those skilled in the art. All testing if performed in triplicate, the results are combined, and the average log reduction is reported. • (c) The choice of contact time period also is at the discretion of the investigator. Any contact time period can be chosen. Typical contact times range from 10 second to 5 minutes, with 30 seconds and 1 minute being typical contact times. The contact temperature also can be any temperature, typically room temperature, or about 25 degrees Celsius. • (d) The microbial suspension, or test inoculum, is prepared by growing a microbial culture on any appropriate solid media (e.g., agar). The microbial population then is washed from the agar with sterile physiological saline and the population of the microbial suspension is adjusted to about 10^8 colony forming units per ml (cfu/ml). • (e) The table below lists the test microbial cultures used in the following tests and includes the name of the bacteria, the ATCC (American Type Culture Collection) identification number, and the abbreviation for the name of the organism used hereafter.
(§2) The log reduction is calculated using the formula: Log reduction=log10(numbers control)−log10(test sample survivors). Foam Height Determination

Another experiment has as its system S. aureus (ATCC # 6538). Nature of the experiment: Time kill activity (ASTM E 2315), log reduction. It counts as cell-based. The note with it: 30 seconds. How it is done:
as §1, §2

[1] abbreviates: active at 0.65% w/w in the composition of formulation example 15, pH 6.25.
The mark [2] stands for this setting: active at 2% w/w in the composition of formulation example 15, pH 6.25.
Where [3] appears, read: active at 4% w/w in the composition of formulation example 15, pH 6.25.

On to `CC(C)(C)CC(C)(C)c1ccc(OCCOCC[N+](C)(C)Cc2ccccc2)cc1` [Benzethonium Chloride], for which the “E. coli log reduction” value in the experiment with E. coli (ATCC # 112229) (setting [1]) was greater than 5.73. Also, the “S. Aureus log reduction” value in the experiment on S. aureus (ATCC # 6538) (setting [1]) is reported as greater than 5.39.

`N=C(NCCCCCCNC(=N)NC(=N)Nc1ccc(Cl)cc1)NC(=N)Nc1ccc(Cl)cc1.O=C(O)[C@H](O)[C@@H](O)[C@H](O)[C@H](O)CO.O=C(O)[C@H](O)[C@@H](O)[C@H](O)[C@H](O)CO` [Chlorohexidine Gluconate]: the “E. coli log reduction” value in the experiment with E. coli (ATCC # 112229) (setting [2]) and in the experiment on E. coli (ATCC # 112229) (setting [3]) was greater than 5.73 in each case. For the same compound, the “S. Aureus log reduction” value with S. aureus (ATCC # 6538) (setting [2]) and with S. aureus (ATCC # 6538) (setting [3]) was greater than 5.39 each time.

Consider `CCCCCCCCCC[N+](C)(C)CCCCCCCCCC.[Cl-]` [Didecyl Dimethyl Ammonium Chloride], for which the “E. coli log reduction” value in the experiment with E. coli (ATCC # 112229) (setting [1]) is reported as greater than 5.73. Besides, the “S. Aureus log reduction” value in the experiment with S. aureus (ATCC # 6538) (setting [1]) is reported as greater than 5.39.

In the case of Polyhexamethylene Biguanide, the “E. coli log reduction” value in the experiment on E. coli (ATCC # 112229) (setting [1]) is listed as greater than 5.73. In addition, the “S. Aureus log reduction” value with S. aureus (ATCC # 6538) (setting [1]) is 3.10.
